# Source: patent US20030161799A1, “Practical and humane method for armpit odor care” (priority 2002, published 2003)
# Where two headings read alike, the source gives them in different places.
# How the values were obtained:
# axillary malodor = test: topical treatment of axillary malodor on the skin; assay type: in vivo, human; conditions: for effect against axillary malodors: topical application to armpits, applicants' own experiments; for outcome of treatment of repeated infections: overnight
# Source text: Non-prescription azoles sold in groceries are intended for treating feet or vaginal fungal infections. Essentially the same compositions are often sold for feet and vaginal applications under different labels and in different forms. For axillary use, we strongly prefer them as creams.
# In our experiments, we treated the armpits, then switched to all new underwear, and rigorously sterilized it with chlorine-based bleaches after every use. […]
# A person, low perspiration, axillary malodor since puberty. […] Now uses peroxide bleach all the time.
# [1] = in vivo
# Source text: (§1) Undecylenic acid, salicylic acid and peroxides suffer from certain disadvantages.
# [2] = skin tolerability on armpit application
# Source text: as §1
smiles,measurement,setting,value
CN(C/C=C/C#CC(C)(C)C)Cc1cccc2ccccc12 [Terbinafine],effect against axillary malodors,axillary malodor,some effect
C=CCCCCCCCCC(=O)O [Undecylenic acid],effect against axillary malodors,axillary malodor,functional
same,adverse skin effects,[1],"may cause pain, burning and irritations"
O=C(OOC(=O)c1ccccc1)c1ccccc1 [benzoyl peroxide],effect against axillary malodors,axillary malodor,functional
Clc1ccccc1C(c1ccccc1)(c1ccccc1)n1ccnc1 [clotrimazole],time at which the odor disappears,"axillary malodor; mature axillary malodor, cream two times a day, two weeks treatment",between the fourth and the seventh day
OO [hydrogen peroxide],effect against axillary malodors,axillary malodor,functional
Clc1ccc(COC(Cn2ccnc2)c2ccc(Cl)cc2Cl)c(Cl)c1 (stereo not shown) [miconazole],outcome of treatment of repeated infections,"axillary malodor; person, two times in a row",cured
same,outcome of first treatment of axillary malodor,"axillary malodor; person, two applications per day, seven days in a row",Successfully treated
O=C(O)c1ccccc1O [salicylic acid],effect against axillary malodors,axillary malodor,functional
same,adverse skin effects,[2],"may cause pain, burning and irritations"
Clc1ccc(C(Cn2ccnc2)OCc2ccsc2Cl)c(Cl)c1 (stereo not shown) [tioconazole],outcome of treatment of repeated infections,"axillary malodor; person, one-time treatment",cured
same,effectiveness compared with clotrimazole,"axillary malodor; vaginal tioconazole product, topical on armpits",much more effective than clotrimazole
Cc1cccc(N(C)C(=S)Oc2ccc3ccccc3c2)c1 [tolnaftate],effect against axillary malodors,axillary malodor,some effect
